Structures are written as SMILES.

One may read the IC50 as the concentration that gives 50% inhibition. In general, EC50 refers to the concentration needed to bring the measured effect to its halfway point. As a reminder, the Solubility is the concentration that dissolves in the medium under given conditions.

Data set [1] has as its target Nicotinic Acetylcholine Receptor α4β2 (nAchRa4/b2) (Homo sapiens (Human), UniProt P17787+P43681). Briefly: Nicotinic acetylcholine receptor α4β2 ion channel blocking assay. The data set is classed as cell-based. As to the method:
Cell lines were expanded from freezer stocks according to standard procedures. Cells were seeded in a total volume of 20 μL into black-walled, clear-bottom, Poly-D-lysine coated 384-well microplates and incubated at 37° C. for the appropriate time prior to testing.
Assays were performed in 1×Dye Loading Buffer consisting of 1×Dye, and 2.5 mM freshly-prepared Probenecid when applicable.
Test compounds were assayed at 10 concentrations with the highest concentration either 30 or 10 μM and subsequent concentrations using a 0.33 dilution factor.
Prior to testing, cells were loaded with dye then incubated for 30-60 minutes at 37° C. For antagonist determination, cells were pre-incubated with sample. Dihydro-β-erythroidine was used as a positive control. Intermediate dilution of sample stocks was performed to generate 2-5×sample in assay buffer.
After dye loading, cells were moved from the incubator and 10-25 μL 2-5×sample was added to cells in the presence of EC80 agonist when appropriate. Cells were incubated for 30 minutes at room temperature in the dark to equilibrate plate temperature. Vehicle concentration was 1%.
Compound activity was measured on a FLIPRTetra(MDS) and analyzed using CBIS data analysis suite (ChemInnovation, CA). Percentage inhibition was calculated using the following formula: % Inhibition=100%×(1−(mean RLU of test sample−mean RLU of vehicle control)/(mean RLU of EC80 control−mean RLU of vehicle control)).

Data set [2] deals with T1, serotonin (5-HT) transporter (SERT) (Rattus norvegicus (Rat), UniProt P31652). Briefly: Rat synaptosome SERT [3H]5-HT uptake inhibition assay. Particulars: Inhibition of [3H]5-HT Uptake at SERT IC50 (nM), 5 nM [3H]5-HT.
Data set [3] has as its target human 5-HT transporter (hSERT) (Homo sapiens (Human), UniProt P31645). Briefly: Human serotonin transporter  assay ([3H]imipramine radioligand, CHO cells). Format: binding. As to the method: Benzofuran derivatives were evaluated for inhibiting the human 5-HT transporter (hSERT) as expressed in CHO cells using an antagonist radioligand assay (Tatsumi, M. et al. (1999), Eur. J Pharmacol., 368: 277-283). […] Test compounds were assayed in three trials at […], and 0.94868 μM.

The target of data set [4] is T1, serotonin (5-HT) transporter (SERT). Briefly: Rat synaptosome SERT [3H]5-HT release assay. Particulars: [3H]5-HT release via SERT EC50 (nM), 5 nM [3H]5-HT.
Data set [5] concerns the target MAO-A (Homo sapiens (Human), UniProt P21397). Briefly: MAO-A inhibition assay (kynuramine). Format: biochemical.
Experimental: MAO-A and test compounds were preincubated at 37° C. for 15 minutes before substrate addition. Test compounds were assayed at 10 concentrations with the highest concentration either 30 or 10 μM and subsequent concentrations using a 0.33 dilution factor. The reaction was initiated by addition of kynuramine and incubated at 37° C. for 30 minutes. The reaction was terminated by addition of NaOH. The amount of 4-hydroquioline formed was determined through spectrofluorimetric readout with the emission detection at 380 nm and excitation wavelength 310 nm.
In data set [6] the target is DAT (Homo sapiens (Human), UniProt Q01959). Briefly: hDAT release assay in CHO cells ([3H]dopamine). The settings on record: EC50 DAT (Mean ± SEM, nM), CHO cells expressing hDAT.
Data set [7] addresses SERT (Homo sapiens (Human), UniProt P31645). Description: hSERT release assay in CHO cells ([3H]serotonin). Particulars: EC50 SERT (Mean ± SEM, nM), CHO cells expressing hSERT.
Data set [8] concerns healthy human individual. Briefly: Human effects of non-racemic 5-MAPB, self-reported ratings (Good, Bad, Open). Format: in vivo. The settings on record: averaged from all sessions, 54 mg 5-MAPB HCl oral in two halves. The procedure: The effects of non-racemic 5-MAPB HCl were tested by a healthy human individual at four different ratios of enantiomers plus the racemate as a control: • 54 mg S and 0 mg R (100% S) • 47 mg Sand 7 mg R (87% S) • 36 mg S and 18 mg R (67% S) • 27 mg S and 27 mg R (50% S) • 7 mg S and 47 mg R (13% S)
Two trials were carried out at each ratio, except for 13% S where only one was conducted. Trials were at least 72 h apart.
5-MAPB HCl was dissolved in 1.5 ml distilled water and consumed in two halves, separated by 1 hour. Starting at 3 hours after administration, tablets of 250 mg ascorbic acid and capsules of 300 mg alpha lipoic acid were taken ad libitum (approximately every hour for a total of 4 administrations).
Measurements were made approximately every 2 hours until post 6 hours and the maximum ratings per session were analyzed. Additionally, an index of good drug effects versus emotional openness, calculated as (Open−Good)/(200, the theoretical maximum of Open+Good), was constructed at each time point and the maximum analyzed. In healthy volunteers, Good Ratings can be considered a predictor of abuse liability. Accordingly, this index can be used as an indicator of the balance of a therapeutic effect (emotional openness) vs abuse liability.
Historic data of two trials 50 mg RS-5-MAPB Cl from the same individual were also included in the analysis for comparison.

In data set [9] the target is 5-HT1BR (Homo sapiens (Human), UniProt P28222). Description: 5-HT1BR cAMP secondary messenger agonist assay (HitHunter, CHO-K1). The data set is classed as cell-based. An excerpt: The 5-HT1BR cAMP secondary messenger agonist assay used a panel of CHO-K1 cell lines stably expressing non-tagged GPCRs that endogenously signal through cAMP. Hit Hunter® cAMP assays monitored the activation of a GPCR via Gi and Gs secondary messenger signaling in a homogenous, non-imaging assay format using DiscoverX Enzyme Fragment Complementation (EFC) with β-galactosidase as the functional endpoint.
The enzyme was split into two complementary portions: Enzyme Acceptor (EA) and Enzyme Donor (ED). Exogenously introduced ED fused to cAMP (ED-cAMP) competed with endogenously generated cAMP for binding to an anti-cAMP-specific antibody. Active β-galactosidase was formed by complementation of exogenous EA to any unbound ED-cAMP.
Cell lines were expanded from freezer stocks according to standard procedures. Cells were seeded in a total volume of 20 μL into white walled, 384-well microplates and incubated at 37° C. for the appropriate time prior to testing. cAMP modulation was determined using the DiscoverX HitHunter cAMP XS+ assay.
For agonist determination, cells were incubated with sample (in the presence of EC80 forskolin to induce response if measuring Gi secondary messenger signaling). Media was aspirated from cells and replaced with 15 μL 2:1 HBSS/10 mM Hepes:cAMP XS+ Ab reagent. Intermediate dilution of sample stocks was performed to generate 4×sample in assay buffer (optionally containing 4×EC80 forskolin). 5 μL of 4×sample was added to cells and incubated at 37° C. or room temperature for 30 or 60 minutes, as appropriate. Final assay vehicle concentration was 1%.

In data set [10] the target is 5-HT2B (Homo sapiens (Human), UniProt P41595). Briefly: 5-HT2B agonist and antagonist calcium assay (Calcium NWPLUS, FLIPR). The data set is classed as cell-based.
Chain of 5-HT2B (P41595 whole entry, looked up, species assumed): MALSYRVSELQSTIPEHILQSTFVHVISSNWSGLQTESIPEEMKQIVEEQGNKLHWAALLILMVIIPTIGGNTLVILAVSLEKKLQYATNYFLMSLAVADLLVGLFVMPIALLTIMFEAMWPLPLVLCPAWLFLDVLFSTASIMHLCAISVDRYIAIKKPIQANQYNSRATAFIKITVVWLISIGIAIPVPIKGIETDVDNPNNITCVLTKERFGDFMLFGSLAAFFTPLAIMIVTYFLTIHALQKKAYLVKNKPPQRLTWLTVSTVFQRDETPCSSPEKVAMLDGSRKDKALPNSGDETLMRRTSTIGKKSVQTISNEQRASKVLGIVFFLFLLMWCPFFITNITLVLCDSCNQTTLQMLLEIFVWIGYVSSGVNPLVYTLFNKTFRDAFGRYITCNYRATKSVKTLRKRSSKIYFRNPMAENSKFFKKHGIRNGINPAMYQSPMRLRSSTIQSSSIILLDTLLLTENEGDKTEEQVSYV
Data set [11] deals with 5-HT2A receptors (Homo sapiens (Human), UniProt P28223). Description: 5-HT2A agonist and antagonist calcium assay (Calcium NWPLUS, FLIPR). Format: cell-based. The procedure: The DiscoveRx Calcium NWPLUS Assay was used for detection of changes in intracellular calcium as signalled by an increase of dye fluorescence in cells expressing 5-HT2A receptors. Signal was measured on a fluorescent plate reader equipped with fluidic handling capable of detecting rapid changes in fluorescence upon compound stimulation.
To conduct the assay, cell lines were expanded from freezer stocks according to standard procedures. Cells (10,000 cells/well) were seeded in a total volume of 50 μL (200 cells/μL) into black-walled, clear-bottom, Poly-D-lysine coated 384-well microplates and incubated at 37-C for the appropriate time prior to testing. DMSO concentration for all readouts was ≤0.2%.
Assays were performed in 1×DyeLoading Buffer consisting of 1×Dye (DiscoverX, Calcium No WashPLUS kit, Catalog No. 90-0091), 1×Additive A and 2.5 mM Probenecid in HBSS/20 mM Hepes. Probenecid was prepared fresh. Cells were loaded with dye prior to testing. Media was aspirated from cells and replaced with 25 μL Dye Loading Buffer. Test compounds were assayed at 10 concentrations with the highest concentration either 30 or 10 μM and subsequent concentrations using a 0.33 dilution factor. Cells with testing sample were incubated for 45 minutes at 37° C. and then 20 minutes at room temperature. After dye loading, cells were removed from the incubator and 25 μL of 2×compound in HBSS/20 mM Hepes was added using a FLIPR Tetra (MDS). […]
Compound agonist activity was measured on a FLIPR Tetra. Calcium mobilization was monitored for 2 minutes with a 5 second baseline read. FLIPR read-Area under the curve was calculated for the two minute read. Compound activity was analyzed using CBIS data analysis suite (ChemInnovation, CA). Percentage activity was calculated as 100%×(mean RFU of test sample−mean RFU of vehicle control)/(mean MAX RFU control ligand −mean RFU of vehicle control). For antagonist mode assays, percentage inhibition was calculated as 100%×(1−(mean RFU of test sample−mean RFU of vehicle control)/(mean RFU of EC80 control−mean RFU of vehicle control)).

A short description of data set [12]: Solubility assessment in FaSSIF V2 media. The settings on record: room temp, scale up samples of racemic 5-MAPB salts.
The mark [13] stands for this setting: IC50 (appeared close to), lowest concentration too high for accurate estimate.
[14] abbreviates: SERT IC50 (μM), 2 nM [3H]imipramine.

Chain of Nicotinic Acetylcholine Receptor α4β2 (nAchRa4/b2) (P43681 29-627 limits assumed): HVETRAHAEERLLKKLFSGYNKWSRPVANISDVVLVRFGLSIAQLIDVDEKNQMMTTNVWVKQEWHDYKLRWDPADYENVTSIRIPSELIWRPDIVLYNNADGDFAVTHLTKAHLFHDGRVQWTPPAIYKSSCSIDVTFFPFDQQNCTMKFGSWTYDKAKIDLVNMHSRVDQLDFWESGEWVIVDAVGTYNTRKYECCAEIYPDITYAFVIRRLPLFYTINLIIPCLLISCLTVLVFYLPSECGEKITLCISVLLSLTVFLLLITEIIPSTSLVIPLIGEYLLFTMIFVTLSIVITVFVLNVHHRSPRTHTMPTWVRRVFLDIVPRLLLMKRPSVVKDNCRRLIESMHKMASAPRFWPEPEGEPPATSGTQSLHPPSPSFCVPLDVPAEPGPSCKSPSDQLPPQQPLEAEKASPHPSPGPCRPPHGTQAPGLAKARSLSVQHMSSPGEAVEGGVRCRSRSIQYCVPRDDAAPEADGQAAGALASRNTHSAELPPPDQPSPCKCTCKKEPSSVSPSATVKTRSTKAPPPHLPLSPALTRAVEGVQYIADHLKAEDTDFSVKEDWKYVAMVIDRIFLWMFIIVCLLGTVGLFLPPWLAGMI
Chain of Nicotinic Acetylcholine Receptor α4β2 (nAchRa4/b2) (P17787 26-502 limits assumed): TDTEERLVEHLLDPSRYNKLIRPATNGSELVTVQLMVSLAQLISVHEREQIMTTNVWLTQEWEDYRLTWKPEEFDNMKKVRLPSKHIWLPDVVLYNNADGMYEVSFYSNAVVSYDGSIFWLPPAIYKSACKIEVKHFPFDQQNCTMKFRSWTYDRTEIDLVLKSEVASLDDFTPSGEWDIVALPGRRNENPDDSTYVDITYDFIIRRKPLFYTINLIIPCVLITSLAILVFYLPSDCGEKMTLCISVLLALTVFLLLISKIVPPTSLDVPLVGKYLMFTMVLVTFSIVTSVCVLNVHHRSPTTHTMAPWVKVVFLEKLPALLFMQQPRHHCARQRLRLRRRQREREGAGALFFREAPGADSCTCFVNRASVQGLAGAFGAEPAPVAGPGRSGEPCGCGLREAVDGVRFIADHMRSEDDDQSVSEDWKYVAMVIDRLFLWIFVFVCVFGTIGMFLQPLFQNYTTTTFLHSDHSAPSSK
Chain of MAO-A (P21397 whole entry, looked up, species assumed): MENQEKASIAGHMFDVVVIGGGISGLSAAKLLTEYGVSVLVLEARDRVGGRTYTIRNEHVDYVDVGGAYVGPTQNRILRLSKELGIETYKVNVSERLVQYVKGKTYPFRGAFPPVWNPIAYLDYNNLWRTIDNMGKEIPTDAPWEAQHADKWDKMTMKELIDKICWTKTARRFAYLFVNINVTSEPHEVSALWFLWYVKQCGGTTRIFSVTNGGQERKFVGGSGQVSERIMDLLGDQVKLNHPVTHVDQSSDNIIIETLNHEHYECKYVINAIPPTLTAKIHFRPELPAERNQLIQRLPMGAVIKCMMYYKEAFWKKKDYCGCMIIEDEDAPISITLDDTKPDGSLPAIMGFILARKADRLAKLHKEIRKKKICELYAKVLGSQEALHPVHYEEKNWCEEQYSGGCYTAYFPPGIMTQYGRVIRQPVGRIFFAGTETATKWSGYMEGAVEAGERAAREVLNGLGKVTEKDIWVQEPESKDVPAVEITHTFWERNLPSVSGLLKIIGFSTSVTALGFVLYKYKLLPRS

As for `CC[C@H](Cc1ccc2occc2c1)NC` (stereo in doubt) [Compound R-5-MBPB, 1-(benzofuran-5-yl)-N-methylbutan-2-amine], the IC50 is 6330 nM in data set [1], 212 ± 36.2 nM in [2] and approximately 0.949 µM in data set [3] (setting [13]). Further, the midpoint of the response in [4], the EC50, lay at 49.5 ± 27.1 nM.
Take `CC[C@@H](Cc1ccc2occc2c1)NC` (stereo in doubt) [Compound S-5-MBPB, 1-(benzofuran-5-yl)-N-methylbutan-2-amine]: the IC50 in [1] was 9980 nM; in [2] it was 124 ± 35.8 nM; in data set [5], 2660 nM; in data set [3] (setting [13]) it was approximately 0.0949 µM. Moreover, in data set [4], the EC50 was 31.2 ± 14.3 nM.
For the compound `CN[C@H](C)Cc1ccc2occc2c1` [75% R-5-MAPB], the EC50 was determined as 794 ± 182 nM in data set [6] and 122 ± 13 nM in data set [7].
For `CN[C@@H](C)Cc1ccc2occc2c1` [75% S-5-MAPB], in that order: 632 ± 113 nM and 80 ± 7 nM.
In turn, `CN[C@@H](C)Cc1ccc2occc2c1` [100% S-5-MAPB] registered a Bad in data set [8] (maximum 0-100 rating of bad drug effects) of 1%. This compound displayed an Open in data set [8] (maximum 0-100 rating of emotional openness) of 65%. The Good in [8] (maximum 0-100 rating of good drug effects) was determined as 55%.
Take `CN[C@H](C)Cc1ccc2occc2c1` [Compound R-5-MAPB, (R)-1-(benzofuran-5-yl)-N-methylpropan-2-amine]: the IC50 in data set [1] turned out to be 4240 nM; in data set [2], 150 ± 8.6 nM; in [5], 3940 nM; in data set [10], 360 nM; in data set [3] (setting [14]), 2.7 µM; in data set [11], 5340 nM. Moreover, the EC50 in [6] was 1950 ± 401 nM; in data set [9] (5-HT1BR EC50 (μM)), 0.981 µM; in data set [9] (5HT1B Agonist (μM)), 0.98 µM; in data set [11] it was 2400 nM; in data set [7], 184 ± 3 nM; in [4], 29.3 ± 3.7 nM. In addition, the “Hill Coef.” value in data set [9] was 1.13.
Regarding `CN[C@@H](C)Cc1ccc2occc2c1` [Compound S-5-MAPB, (S)-1-(benzofuran-5-yl)-N-methylpropan-2-amine], the IC50 in data set [2] was determined as 60.4 ± 2.8 nM; in data set [5], 1290 nM; in data set [3] (setting [14]) it was 3.4 µM. Moreover, the EC50 stood at 258 ± 99 nM in data set [6]; 0.161 µM in [9] (5-HT1BR EC50 (μM)); 0.16 µM in data set [9] (5HT1B Agonist (μM)); 67 ± 15 nM in data set [7]; 13 ± 1.2 nM in [4]. The “Hill Coef.” value in [9] was found to be 1.08.
In the case of `CN[C@@H](C)Cc1ccc2ccoc2c1` [Compound S-6-MAPB, (S)-1-(benzofuran-6-yl)-N-methylpropan-2-amine], the IC50 in [2] came to 90.9 ± 5.9 nM; in [5] it was 5390 nM; in data set [3] (setting [14]), 6.7 µM. In addition, in data set [9], the “Hill Coef.” value was 1.21. In addition, the EC50 in data set [9] (5-HT1BR EC50 (μM)) turned out to be 0.102 µM; in [9] (5HT1B Agonist (μM)) it was 0.1 µM; in data set [4], 20.6 ± 2.7 nM.
For `CNC(C)Cc1ccc2occc2c1.Cl` (stereo not drawn) [Pattern 1A, 5-MAPB hydrochloride], the Solubility in [12] was more than 10000 µg/mL.
On to `Br.CNC(C)Cc1ccc2occc2c1` (stereo not drawn) [Pattern 2B], for which, in data set [12], the Solubility is more than 10000 µg/mL.
Turning to `CNC(C)Cc1ccc2occc2c1.O=C(O)/C=C\C(=O)O` (stereo not drawn) [Pattern 10A], in data set [12], the Solubility was more than 10000 µg/mL.

Values taken from patent US11767305B2, “Advantageous benzofuran compositions for mental disorders or enhancement” (Tactogen Inc, priority 2020, dated 2023).
